Source: patent US8501721B2, “Postprandial hyperglycemia-improving agent” (Kao Corporation, priority 2009, dated 2013)

Test system: Wistar rats
Assay: Postprandial maximum increase of blood glucose in rat after oral administration of cooked white rice and triolein
Format: in vivo
Conditions: for Postprandial maximum increase of blood glucose (maximum increase value from initial value, relative value based on 100 for control group): with 2 mg white rice and 1.5 μg triolein per g body weight, fasted male Wistar rats, average±standard error
Method: To white rice (Koshihikari produced in Tochigi prefecture), water (1.5 times equivalent to the volume of the white rice) was added to allow the rice to absorb the water for 30 minutes. Then, the rice was cooked with a rice cooker (ZOJIRUSHI microcomputer-controlled rice cooker NS-KG05, manufactured by Zojirushi Corporation). Water and triolein (manufactured by Sigma-Aldrich Corporation) were added to the cooked rice, followed by homogenization until the mixture was sufficiently homogenized, thereby yielding a sample for administration. The sample for administration was orally probe-administered to a group at 2 mg of white rice per g body weight and 1.5 μg of triolein per g body weight (the group as a control group). Each of the purified cycloartenol produced in Example 1 described above was added to a sample for administration (dissolved in triolein). Each of the resultants was orally probe-administered to a group at 2 mg of white rice per g body weight, 1.5 μg of triolein per g body weight, and 0.075 μg, or 0.15 μg, of cycloartenol equivalent per g body weight (the groups as Test group 1 and 2). Further, purified 24-methylenecycloartanol was added to a sample for administration (dissolved in triolein). The resultant was orally probe-administered to a group at 2 mg of white rice per g body weight, 1.5 μg of triolein per g body weight, and 0.15 μg of 24-methylenecycloartanol equivalent per g body weight (the group as Comparative group).
8-week old male Wistar rats (supplied by Japan SLC Inc.), after 15 hours of fasting, were divided into groups each consisting of 10 rats with their body weight being almost the same between the groups. Immediately after the administration to each group, blood sample was collected from tail vein sequentially. The blood sample was measured for its blood glucose level by using ACCU-CHEK AVIVA (manufactured by Roche Diagnostics GmbH) to calculate the maximum increase of blood glucose.
Results are represented as average±standard error, and statistical significant differences between groups were determined by the Dunnett's test with respect to the control group (*p <0.05).

[1] = 0.15 μg per g body weight, *p<0.05 vs control (Dunnett)

Structure (SMILES) | Postprandial maximum increase of blood glucose (maximum increase value from initial value, relative value based on 100 for control group) [1] | postprandial increase of blood glucose (result in words) (0.075 μg per g body weight, rat) | Postprandial maximum increase of blood glucose (maximum increase value from initial value, relative value based on 100 for control group) (0.075 μg per g body weight) | postprandial increase of blood glucose (result in words) (0.15 μg per g body weight, rat) | effect of inhibiting the postprandial increase of blood glucose compared with 24-methylenecycloartanol (rat, comparison at 0.15 μg per g body weight)
C=C(CC[C@@H](C)[C@H]1CC[C@@]2(C)[C@@H]3CC[C@H]4C(C)(C)[C@@H](O)CC[C@@]45C[C@@]35CC[C@]12C)C(C)C [24-methylenecycloartanol, reference compound] | 89.25 ± 4.32 relative value based on 100 for control group |  |  |  | 
CC(C)=CCC[C@@H](C)[C@H]1CC[C@@]2(C)[C@@H]3CC[C@H]4C(C)(C)[C@@H](O)CC[C@@]45C[C@@]35CC[C@]12C [cycloartenol] | 79.74 ± 7.71* relative value based on 100 for control group | tended to be decreased | 92.03 ± 3.16 relative value based on 100 for control group | significantly inhibited | stronger than that of 24-methylenecycloartanol
